Values of other authors as cited in patent US20230404915A1, “RAPIDLY […] COMPOSTIONS AND METHODS (Nicotine)” (ORCOSA INC., priority 2020, published 2023).

Biological target: nicotinic acetylcholine receptors (nAChRs) (Homo sapiens, UniProt P17787+P43681)
Conditions: peak levels of nicotine after smoking a cigarette; brain α4β2 nAChRs

Sequence of nicotinic acetylcholine receptors (nAChRs) (P43681 29-627 limits assumed): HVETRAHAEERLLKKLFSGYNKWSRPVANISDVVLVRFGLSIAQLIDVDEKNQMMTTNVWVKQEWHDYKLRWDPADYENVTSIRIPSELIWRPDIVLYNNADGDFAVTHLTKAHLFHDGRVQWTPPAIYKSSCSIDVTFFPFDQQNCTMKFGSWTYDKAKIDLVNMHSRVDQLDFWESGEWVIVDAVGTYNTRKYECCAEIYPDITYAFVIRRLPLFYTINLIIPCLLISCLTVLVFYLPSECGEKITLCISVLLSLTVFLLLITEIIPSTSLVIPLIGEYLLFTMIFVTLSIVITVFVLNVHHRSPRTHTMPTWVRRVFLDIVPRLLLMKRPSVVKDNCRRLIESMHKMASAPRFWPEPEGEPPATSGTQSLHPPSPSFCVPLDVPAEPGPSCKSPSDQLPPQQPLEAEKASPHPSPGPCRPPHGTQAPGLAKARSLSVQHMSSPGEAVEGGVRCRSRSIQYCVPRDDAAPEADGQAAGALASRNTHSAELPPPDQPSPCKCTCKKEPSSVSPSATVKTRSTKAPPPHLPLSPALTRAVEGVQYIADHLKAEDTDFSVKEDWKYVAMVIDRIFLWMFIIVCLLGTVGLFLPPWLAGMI
Sequence of nicotinic acetylcholine receptors (nAChRs) (P17787 26-502): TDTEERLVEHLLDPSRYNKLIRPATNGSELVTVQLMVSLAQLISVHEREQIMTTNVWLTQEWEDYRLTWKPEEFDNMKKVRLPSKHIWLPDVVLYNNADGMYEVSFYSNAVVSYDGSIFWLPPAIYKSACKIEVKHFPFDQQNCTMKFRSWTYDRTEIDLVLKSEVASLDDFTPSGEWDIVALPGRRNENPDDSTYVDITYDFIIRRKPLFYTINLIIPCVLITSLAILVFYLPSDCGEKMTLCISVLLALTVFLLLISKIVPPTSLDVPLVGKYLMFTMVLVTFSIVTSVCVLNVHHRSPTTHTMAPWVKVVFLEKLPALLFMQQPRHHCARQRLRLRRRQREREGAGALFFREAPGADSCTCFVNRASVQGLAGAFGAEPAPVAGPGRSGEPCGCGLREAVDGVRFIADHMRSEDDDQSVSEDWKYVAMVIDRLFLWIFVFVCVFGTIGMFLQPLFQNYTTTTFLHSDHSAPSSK

SMILES: CN1CCCC1c1cccnc1 (stereo not shown) [nicotine]
- binding to the nicotinic acetylcholine receptors (nAChRs), saturation: around 90%
